Source: PubChem BioAssay (NCI)
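Following 48 hours of exposure in 96-well plates, responses at five concentrations were used to interpolate endpoints linearly. Definition used: TGI = concentration required for complete inhibition of growth.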 Where a SMILES comes first, the peptide text is derived from it. The star is where a group is joined. Boc = CC(C)(C)OC(=O)*

Key:
Test in all cases: DTP human tumour cell line panel, 48 h
[1] = tested on: SK-MEL-5 melanoma
[2] = tested on: HOP-62 NSCLC
[3] = tested on: A549 NSCLC
[4] = tested on: NCI-H460 lung
[5] = tested on: ACHN renal
[6] = tested on: LOX IMVI melanoma
[7] = tested on: HCC-2998 colon
[8] = tested on: SF-268 CNS
[9] = tested on: SF-295 CNS
[10] = tested on: SR leukemia

SMILES	TGI [1]	TGI [2]	TGI [3]	TGI [4]	TGI [5]	TGI [6]	TGI [7]	TGI [8]	TGI [9]	TGI [10]
c1ccc(C2C3=C(Nc4ncnn42)c2ccccc2C3)cc1 (stereo unspecified)	> 100 µM	> 100 µM	> 100 µM	> 100 µM	> 100 µM	73.2 µM	> 100 µM	> 100 µM	> 100 µM	
COc1ccc(N2C(=O)C3c4[nH]c5ccc(OCc6ccccc6)cc5c4C4CCC(C(C)(C)C)CC4C3C2=O)cc1 (stereo unspecified)	> 100 µM	> 100 µM	> 100 µM	> 100 µM	> 100 µM	> 100 µM	> 100 µM	> 100 µM	> 100 µM	> 100 µM
O=C1/C(=C/c2ccccc2)N=C(c2ccccc2)N1n1c(-c2ccccc2)nc2ccccc2c1=O	> 100 µM	> 100 µM	> 100 µM	> 100 µM	> 100 µM	> 100 µM	> 100 µM	> 100 µM	> 100 µM	> 100 µM
NC(C(F)(F)F)(C(F)(F)F)P(=O)(Cc1ccccc1)Cc1ccccc1	> 100 µM	> 100 µM	> 100 µM	> 100 µM	> 100 µM	> 100 µM	> 100 µM	> 100 µM	> 100 µM	> 100 µM
COc1ccc(C2Oc3c(cc(O)c(OC)c3C)[C@@H]2C)cc1OC (stereo partly specified)	> 100 µM	> 100 µM	> 100 µM	> 100 µM	> 100 µM	> 100 µM	> 100 µM	> 100 µM	> 100 µM	
CC1(C)OCC(COC(=O)C=[N+]=[N-])O1 (stereo unspecified)	> 100 µM	> 100 µM		> 100 µM	> 100 µM	> 100 µM	> 100 µM	> 100 µM	> 100 µM	> 100 µM
Nc1nc2cc3nc(N)c(N)nc3cc2nc1N	> 100 µM		> 100 µM	> 100 µM	> 100 µM	> 100 µM	> 100 µM	> 100 µM	> 100 µM	> 100 µM
S=C(N/N=C\C=N/NC(=S)N1CCCCC1)N1CCCCC1	> 32.4 µM	> 21.1 µM	> 100 µM	> 41.5 µM		> 100 µM	> 100 µM	> 100 µM	> 77.8 µM	
CC(O[Si](c1ccccc1)(c1ccccc1)C(C)(C)C)[C@H](NC(=O)OC(C)(C)C)C(=O)O[Si](c1ccccc1)(c1ccccc1)C(C)(C)C (stereo partly specified)	30.9 µM	34.2 µM	27.9 µM	25.5 µM	23.9 µM		34.7 µM	31.1 µM	21.4 µM	82 µM
COc1cc(O)c(/C=N/N=C(\N)NO)c(OC)c1	> 10 µM	> 10 µM	> 10 µM	> 10 µM	> 10 µM	> 10 µM	> 10 µM	> 10 µM	> 10 µM	
O=C(/C=C/c1ccc(O)c([N+](=O)[O-])c1)CC(=O)/C=C/c1ccc(O)c([N+](=O)[O-])c1	> 100 µM	> 100 µM	> 100 µM	> 100 µM	> 100 µM	27.5 µM		> 100 µM	> 100 µM	
CN(C)CCCOc1nc2c(c(=O)n(C)c(=O)n2C)n1C (tested in a mixture with another compound)	48.6 µM	> 100 µM	> 100 µM	> 100 µM	68.8 µM	9.8 µM		> 100 µM	> 100 µM	
COc1ccc(C2CC(c3c(O)ccc4ccccc34)=NN2c2ccc([N+](=O)[O-])cc2[N+](=O)[O-])cc1OC (stereo unspecified)	30.2 µM	> 71.7 µM	98.3 µM	> 100 µM	92.2 µM	> 100 µM	> 100 µM	> 100 µM	> 87.1 µM	
COc1ccc(-c2cc(-c3ccco3)c(C#N)c(=S)n2C2OC(COC(C)=O)C(OC(C)=O)C(OC(C)=O)C2OC(C)=O)cc1 (stereo unspecified)	22.8 µM	8.88 µM	24.5 µM	52 µM	19.4 µM	15.1 µM	48.4 µM	23.5 µM	4.65 µM	
NC(=O)N/N=C(\Cc1nc2ccc(Cl)cc2[nH]c1=O)C(=O)Nc1ccc(Cl)cc1Cl	> 100 µM		> 100 µM	> 100 µM	> 100 µM	> 100 µM	> 100 µM	> 100 µM	> 100 µM	
CC(C)(C)c1ccc2c(c1)CNCCNCc1cc(C(C)(C)C)ccc1OCC1(CO2)COc2ccc(C(C)(C)C)cc2CNCCNCc2cc(C(C)(C)C)ccc2OC1	3.37 µM	2.66 µM		0.609 µM	2.98 µM	> 100 µM	0.786 µM	5.12 µM	1.97 µM	
O=C(CC(=O)n1nc(-c2ccccc2)c(N=Nc2ccccc2C(=O)O)c1-c1ccccc1)Nc1ccc(Cl)cc1	> 100 µM	> 100 µM	> 100 µM	> 100 µM	> 100 µM		> 100 µM			42 µM
OCC1CCCCCCCCCCC12SCCCS2 (stereo unspecified)	> 100 µM	> 100 µM	> 100 µM	> 100 µM	> 100 µM	> 100 µM		> 100 µM		> 100 µM
COc1cc2c(cc1OC)C1=Cc3cc(OC)c(OC)cc3C(C)N1C=C2 (stereo unspecified)	> 100 µM	> 100 µM	> 100 µM	> 100 µM	> 100 µM		> 100 µM	> 100 µM	> 100 µM	
N.N.N.O=[N+]([O-])[O-].O=[N+]([O-])[O-].O=[N+]([O-])[O-].O=[N+]([O-])[O-].[Co+3]	> 100 µM	> 100 µM	> 100 µM	> 100 µM	> 100 µM	> 100 µM		> 100 µM	> 100 µM	
O=C(Nc1ccc(Br)cc1)c1c(-c2ccccc2)c2ccc(O)cc2oc1=O	> 10 µM	> 10 µM		> 10 µM	> 10 µM	> 10 µM	> 10 µM	> 10 µM	> 10 µM	> 10 µM
COC(=O)CNC(=O)C(Cc1ccccc1)NC(=O)C(CCSC)NC(=O)C(Cc1ccc(O)cc1)NC(=O)OC(C)(C)C (stereo unspecified) (Boc-YMFG-OMe; configuration not given here)	> 100 µM	> 100 µM	> 100 µM	> 100 µM	> 100 µM	32.7 µM	64.1 µM	87.7 µM	> 100 µM	
